We go through 18 molecules from patent US20220324865A1 (Bayer Aktiengesellschaft, priority 2018, published 2022).

Each structure is given as a SMILES string.

A word on the IC50: it is the concentration that gives 50% inhibition.

The target in this test is T1, human EP3 receptor (Homo sapiens, UniProt P43115).
T1 construct: expressed in transfected cells; host or cells: CHO K1 (Chinese Hamster Ovary), stably co-transfected with Galpha16 and mitochondrial clytin
T1 sequence (P43115 1-390): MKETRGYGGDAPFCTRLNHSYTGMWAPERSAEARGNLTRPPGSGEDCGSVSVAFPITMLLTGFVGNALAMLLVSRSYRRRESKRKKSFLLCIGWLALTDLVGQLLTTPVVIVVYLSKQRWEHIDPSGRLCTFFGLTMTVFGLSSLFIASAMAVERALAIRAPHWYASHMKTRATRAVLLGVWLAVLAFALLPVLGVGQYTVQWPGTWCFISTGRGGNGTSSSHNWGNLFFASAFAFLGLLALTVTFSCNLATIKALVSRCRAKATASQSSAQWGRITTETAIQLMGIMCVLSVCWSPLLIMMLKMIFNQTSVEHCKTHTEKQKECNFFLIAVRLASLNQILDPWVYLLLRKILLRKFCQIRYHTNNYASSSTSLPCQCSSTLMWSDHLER
Briefly: Cellular in vitro assay for determining EP3 receptor activity (human EP3 cell line, sulprostone-stimulated calcium luminescence). The format is cell-based. Particulars: CHO cells expressing human EP3 and mitochondrial Clytin; antagonist mode, sulprostone at EC50; read-out: EP3 CHO mtCLY ANTAG IC50. The method in brief:
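Antagonist activity was measured as inhibition of the luminescent calcium signal elicited by EC50 sulprostone, following 10 min compound pretreatment. The cell line was recombinant CHO K1 co-expressing human EP3, Gα16 and the photoprotein Clytin, reconstituted with coelenterazine.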
With `Cc1c(C(=O)N[C@H](CO)c2ccccc2)nn2c(C)c(-c3ccc4ccccc4c3)[nH]c(=O)c12` [Example 3-2, N-[(1S)-2-Hydroxy-1-phenylethyl]-3,7-dimethyl-6-(naphthalen-2-yl)-4-oxo-4,5-dihydropyrazolo[1,5-a]pyrazine-2-carboxamide], the IC50 was 1.2 nM. Under `O=C(N[C@H](CCO)c1ccc(F)cc1)c1nn2cc(-c3ccc(Cl)c(Cl)c3)[nH]c(=O)c2c1C1CC1` [6-425] stands 0.52 nM; under `Cc1c(C(=O)NCc2ccncc2)nn2c(C)c(-c3ccc4ccccc4c3)[nH]c(=O)c12` [Example 3-64, 3,7-Dimethyl-6-(naphthalen-2-yl)-4-oxo-N-[(pyridin-4-yl)methyl]-4,5-dihydropyrazolo[1,5-a]pyrazine-2-carboxamide], 4.4 nM; under `Cc1cccc2ncc(-c3cn4nc(C(=O)NC5CCOc6ccccc65)c(C(C)C)c4c(=O)[nH]3)cc12` (stereo not drawn) [Example 4-65, N-(3,4-Dihydro-2H-chromen-4-yl)-3-isopropyl-6-(5-methylquinolin-3-yl)-4-oxo-4,5-dihydropyrazolo[1,5-a]pyrazine-2-carboxamide], 1.15 nM. For `O=C(NC1(c2ccc(F)cc2)COC1)c1cc2c(=O)[nH]c(-c3ccc4ccccc4c3)cn2n1` [6-56], the IC50 came to 0.74 nM. Under `Cc1cc(-c2cn3nc(C(=O)N[C@@H](c4ccc(F)cc4)C(C)(C)O)c(C4CC4)c3c(=O)[nH]2)c(F)cc1Cl` [6-594] stands 0.46 nM; under `Cc1c(C(=O)NC2(c3ccccc3)CC2)nn2c(C)c(-c3ccc4ccccc4c3)[nH]c(=O)c12` [Example 3-25, 3,7-Dimethyl-6-(naphthalen-2-yl)-4-oxo-N-(1-phenylcyclopropyl)-4,5-dihydropyrazolo[1,5-a]pyrazine-2-carboxamide], 2.4 nM; under `Cc1cc(-c2cn3nc(C(=O)NCC(C)(N)C(F)(F)F)c(C4CC4)c3c(=O)[nH]2)ccc1Cl` (single isomer, unassigned) [6-320], 1.35 nM. Next, `COc1cc(-c2cn3nc(C(=O)N[C@H](C)C4CC4)c(C4CC4)c3c(=O)[nH]2)ccc1Cl` [6-483]: 1.01 nM; `CC(CN1CCOCC1)NC(=O)c1nn2cc(-c3ccc4ccccc4c3)[nH]c(=O)c2c1C(F)(F)F` (single isomer, unassigned) [6-523]: 10.9 nM.

As for `CC(COc1cc(Cl)cc(Cl)c1)NC(=O)c1nn2cc(-c3ccc4ccccc4c3)[nH]c(=O)c2c1C(F)(F)F` (stereo not drawn) [Example 1-118, N-[2-(3,5-Dichlorophenoxy)-1-methylethyl]-6-(2-naphthyl)-4-oxo-3-(trifluoromethyl)-5H-pyrazolo-[1,5-a]pyrazine-2-carboxamide], the IC50 is 3.95 nM.

Consider `Cc1cc(-c2cn3nc(C(=O)NC(c4ccc(F)cc4)C4(O)CC4)c(C4CC4)c3c(=O)[nH]2)ccc1F` (single isomer, unassigned) [6-652], for which the 50% inhibitory concentration (IC50) was found to be 10 nM.

On to `O=C(NCCC(F)(F)F)c1cc2c(=O)[nH]c(-c3ccc4cccc(F)c4c3)cn2n1` [6-41], for which the IC50 stood at 6.03 nM.

As to `Cc1cc(-c2cn3nc(C(=O)NC(C)C4CCC4)c(C(F)(F)F)c3c(=O)[nH]2)ccc1Cl` (racemic) [6-222], the concentration for half-maximal inhibition (IC50) was 1.11 nM. Next, `Cc1ccc(-c2cn3nc(C(=O)NCC(O)C(F)(F)F)c(C(F)(F)F)c3c(=O)[nH]2)cc1Cl` (single isomer, unassigned) [6-160]: 0.99 nM; `O=C(N[C@@H](c1ccc(F)cc1)C(F)(F)CO)c1nn2cc(-c3ccc(Cl)c(F)c3)[nH]c(=O)c2c1C1CCC1` [6-571]: 1.5 nM.

Consider `Cc1ccc(-c2cn3nc(C(=O)NC(CN4CCOCC4)c4ccc(F)cc4)c(C4CC4)c3c(=O)[nH]2)cc1C` (racemic) [6-441], for which the IC50 was determined as 1.45 nM. Consider `Cc1ccc(-c2cn3nc(C(=O)N[C@@H](c4ccc(F)cc4)C(C)(C)O)cc3c(=O)[nH]2)c(F)c1C` [6-646], for which the half-maximal inhibitory concentration (IC50) came out at 5.4 nM.
